# Measured values from patent US11597724B2, “Herbicidally active 3-phenylisoxazoline-5-carboxamides of tetrahydro and dihydrofuran carboxylic acids and esters” (Bayer Aktiengesellschaft, priority 2017, dated 2023).
# How the values were obtained:
# Type in all cases: in vivo
# [1] = test system: Veronica persica; assay: Post-emergence herbicidal activity against VERPE; conditions: Veronica persica, 504 h, dosage 320 g/ha
# How it was run: (§1)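 Greenhouse plants treated at one-leaf stage, 2–3 weeks after sowing, by spraying WP or EC formulations with 0.5% additive at 600 l/ha water. Visual rating about 3 weeks later versus untreated controls (100% = plants dead, 0% = like controls).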
# [2] = test system: Setaria viridis; assay: Post-emergence herbicidal activity against SETVI; conditions: Setaria viridis, 504 h, dosage 320 g/ha, rated about 3 weeks after treatment
# How it was run: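 Greenhouse weeds in sandy loam were sprayed at the one-leaf stage, 2–3 weeks after sowing, with WP or EC formulations plus 0.5% additive at 600 l/ha water. About 3 weeks later, damage was rated visually against untreated controls, where 100% means plants dead and 0% means like control.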
# [3] = test system: Stellaria media; assay: Post-emergence herbicidal activity against STEME; conditions: Stellaria media, 504 h, dosage 320 g/ha, rated about 3 weeks after treatment
# How it was run: as §1
# [4] = test system: Lolium rigidum; assay: Post-emergence herbicidal activity against LOLRI; conditions: Lolium rigidum, 504 h, dosage 320 g/ha, rated about 3 weeks after treatment
# How it was run: (§2)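 Greenhouse-grown plants sprayed post-emergence at the one-leaf stage, 2 to 3 weeks after sowing, with WP or EC formulations plus 0.5% additive at 600 l/ha water. Activity rated visually after about 3 weeks versus untreated controls (100% = plants dead, 0% = like control).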
# [5] = test system: Avena fatua; assay: Pre-emergence herbicidal activity against AVEFA; conditions: Avena fatua, 504 h, dosage 80 g/ha, read-out: Pre-emergence herbicidal activity against AVEVA in % (AVEFA)
# How it was run: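 Seeds sown in pots, covered with soil; WP or EC formulations sprayed onto soil surface as aqueous suspension/emulsion with 0.5% additive at 600 l/ha water. Pots kept in greenhouse ~3 weeks, then effect scored visually versus untreated controls as % (100% = plants dead, 0% = like control).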
# [6] = test system: Pharbitis purpurea; assay: Post-emergence herbicidal activity against PHBPU; conditions: Ipomoea purpurea, 504 h, dosage 320 g/ha, rated about 3 weeks after treatment
# How it was run: as §2
# [7] = test system: Echinochloa crus-galli; assay: Post-emergence herbicidal activity against ECHCG; conditions: Echinochloa crus-galli, 504 h, dosage 320 g/ha, rated about 3 weeks after treatment
# How it was run: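 Greenhouse pot plants sprayed post-emergence at one-leaf stage (2-3 weeks after sowing) with WP or EC formulations, 0.5% additive, 600 l/ha water. Visual rating about 3 weeks later versus untreated controls: 100% = plants dead, 0% = like control.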
# [8] = Post-emergence treatment, summary over harmful plants; conditions: 504 h, application rate of 0.32 kg of active substance or less per hectare, read-out: herbicidal action, post-emergence treatment (very good herbicidal activity)
# How it was run: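 Greenhouse-grown weeds and crops were sprayed at the one-leaf stage (2–3 weeks post-sowing) with WP or EC formulations plus 0.5% additive at 600 l/ha water. About 3 weeks later, activity was visually rated against untreated controls (100% = dead plants, 0% = like control).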
SMILES,pest or weed control at 320 g/ha [1],pest or weed control at 320 g/ha [2],pest or weed control at 320 g/ha [3],pest or weed control at 320 g/ha [4],pest or weed control at 80 g/ha [5],pest or weed control at 320 g/ha [6],pest or weed control at 320 g/ha [7],pest or weed control at 320 g/ha [8]
"CCOC(=O)[C@H]1C[C@@H](NC(=O)C2(C)CC(c3cccc(F)c3)=NO2)CO1 (mixture of isomers) [I-30, ethyl cis-4-[[(5RS)-3-(3-fluorophenyl)-5-methyl-4H-isoxazole-5-carbonyl]amino]tetrahydrofuran-2-carboxylate]",80%,90%,90%,100%,80%,90%,80%,80 to 100%
"CC1(C(=O)N[C@H]2CO[C@@H](C(=O)OCc3ccccc3)C2)CC(c2cccc(F)c2)=NO1 (mixture of isomers) [I-34, benzyl cis-4-[[(5RS)-3-(3-fluorophenyl)-5-methyl-4H-isoxazole-5-carbonyl]amino]tetrahydrofuran-2-carboxylate]",80%,90%,90%,90%,80%,90%,90%,80 to 100%
"COC(=O)C1=C[C@@H](NC(=O)C2(C)CC(c3cccc(F)c3)=NO2)CO1 (stereo partly drawn) [I-46, methyl (3R)-3-[[3-(3-fluorophenyl)-5-methyl-4H-isoxazole-5-carbonyl]amino]-2,3-dihydrofuran-5-carboxylate]",80%,80%,90%,100%,80%,90%,100%,80 to 100%
